Each structure is given as a SMILES string. Where only a bound is given, the exact number is not on record here.

The source of these data is ChEMBL document CHEMBL5113484, “Synthesis and biological evaluation of novel pentanediamide derivatives as S-adenosyl-l-homocysteine hydrolase inhibitors” (Bioorg Med Chem Lett, 2022).

Series [1] concerns L02. Description: Cytotoxicity against human L02 cells assessed as cell growth inhibition. It is filed as functional, cell-based.
For series [2], the system named is A549. Description: Cytotoxicity against human A549 cells assessed as cell growth inhibition. It is filed as functional, cell-based.
Series [3] concerns MCF7. Description: Cytotoxicity against human MCF7 cells assessed as cell growth inhibition. It is filed as functional, cell-based.
Series [4] deals with HeLa. Description: Cytotoxicity against human HeLa cells assessed as cell growth inhibition. It is filed as functional, cell-based.
For series [5], the system named is MGC-803. Briefly: Cytotoxicity against human MGC-803 cells assessed as cell growth inhibition. It is filed as functional, cell-based.
Series [6] relates to Vesicular stomatitis virus. Description: Antiviral activity against Vesicular stomatitis virus assessed as viral growth inhibition. It is filed as functional, organism-based.
Series [7] can be described thus: Selectivity index, ratio of CC50 for cytotoxicity against African green monkey Vero cells to EC50 for antiviral activity against Vesicular stomatitis virus. It is filed as toxicity, cell-based. To be noted: read-out: Ratio CC50/EC50.
Series [8] is described as follows: Cytotoxicity against African green monkey Vero cells assessed as cell growth inhibition. It is filed as toxicity, cell-based. Particulars: chlorocebus sabaeus.
For series [9], the system named is Respiratory syncytial virus. Description: Antiviral activity against Respiratory syncytial virus assessed as viral growth inhibition. Particulars: human respiratory syncytial virus. It is filed as functional, organism-based.
Series [10] is described as follows: Selectivity index, ratio of CC50 for cytotoxicity against African green monkey Vero cells to EC50 for antiviral activity against Respiratory syncytial virus. It is filed as toxicity, cell-based. Particulars: read-out: Ratio CC50/EC50.
For series [11], the target named is Adenosylhomocysteinase (Homo sapiens, UniProt P23526). Description: Inhibition of SAH hydrolase (unknown origin).
Chain of Adenosylhomocysteinase (P23526 whole entry): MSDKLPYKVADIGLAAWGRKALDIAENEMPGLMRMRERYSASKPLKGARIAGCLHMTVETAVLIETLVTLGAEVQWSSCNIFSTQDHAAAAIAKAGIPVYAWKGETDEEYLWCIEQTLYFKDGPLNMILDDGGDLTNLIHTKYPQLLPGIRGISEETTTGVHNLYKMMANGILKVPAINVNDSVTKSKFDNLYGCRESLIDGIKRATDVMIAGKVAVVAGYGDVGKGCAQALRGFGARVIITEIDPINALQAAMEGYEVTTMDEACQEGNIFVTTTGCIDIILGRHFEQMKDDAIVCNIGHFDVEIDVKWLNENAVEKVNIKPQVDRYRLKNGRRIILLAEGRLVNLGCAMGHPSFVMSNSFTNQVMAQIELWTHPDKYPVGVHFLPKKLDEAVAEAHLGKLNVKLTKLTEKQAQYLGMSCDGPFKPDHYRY

As usually defined, the IC50 is the concentration needed to halve the response being measured. `CN(C(=O)CC(CC(=O)NCCN1CCCC1)c1ccc(Cl)cc1)C1Cc2ccccc2C1` (stereo not given): the IC50 in [1] worked out at 81.5 µM; in series [2], 56 µM; in series [3] it was 76.7 µM; in series [4], 55.4 µM; in [5] it was 83.8 µM.

For the molecule `CCN(C(=O)CC(CC(=O)NCCN1CCCC1)c1ccccc1)C1Cc2ccccc2C1` (stereo not given), the IC50 in series [1], in series [2], in series [3], in series [4] and in series [5] was over 100 µM in each case.

For `O=c1[nH]cc(F)c(=O)[nH]1` [FLUOROURACIL], the IC50 is 46.5 µM in series [1], 48.5 µM in [3] and 38.5 µM in [5].

With `CCN(C(=O)CC(CC(=O)NCCN1CCCC1)c1ccc(Cl)cc1)C1Cc2ccccc2C1` (stereo not given), the IC50 in series [1] is 54.2 µM; in [2], 22.6 µM; in series [3], 20.4 µM; in series [4], 36.4 µM; in series [5] it was 55.5 µM.

In the case of `O=C(CC(CC(=O)NC1Cc2ccccc2C1)c1ccccc1)NCCN1CCCC1` (stereo not given), the IC50 in series [1], in [2], in series [3], in series [4] and in series [5] was over 100 µM in each case.

As for `CCN(C(=O)CC(CC(=O)NCCN1CCCCC1)c1ccccc1)C1Cc2ccccc2C1` (stereo not given), the IC50 was over 100 µM in [1]; 84.5 µM in series [2]; over 100 µM in series [3]; over 100 µM in [4]; over 100 µM in [5].

As to `CCN(CC)CCNC(=O)CC(CC(=O)N(C)C1Cc2ccccc2C1)c1ccccc1` (stereo not given), the IC50 in series [1], in [2], in [3], in series [4] and in [5] was over 100 µM each time.

A word on the EC50: it is the concentration needed to bring the measured effect to its halfway point. By CC50 is commonly meant the concentration giving 50% cytotoxicity. In the case of `CCN(CC)CCNC(=O)CC(CC(=O)N(CC)C1Cc2ccccc2C1)c1ccc(Cl)cc1` (stereo not given), the IC50 in [1] came to 78.4 µM; in series [2], 18.4 µM; in series [3] it was 23 µM; in series [4] it was 24.3 µM; in series [11], 3.72 µM; in [5] it was 44.9 µM. Besides, the EC50 in series [6] amounted to 38.9 µM; in [9], 91.1 µM. Further, the figures for the selectivity ratio in [7] and in series [10] were 2.36 and 1.01, respectively. The CC50 in series [8] is 91.8 µM.

Turning to `CCN(CC)CCNC(=O)CC(CC(=O)N(C)C1Cc2ccccc2C1)c1ccc(Cl)cc1` (stereo not given), the IC50 in [1] is 56.5 µM; in [2] it was 21.4 µM; in series [3], 28.8 µM; in series [4] it was 48.1 µM; in series [5], 81.2 µM.

For `CCN(C(=O)CC(CC(=O)NCCN1CCCCC1)c1ccc(Cl)cc1)C1Cc2ccccc2C1` (stereo not given), the IC50 was determined as 84.2 µM in series [1]; 13.2 µM in [2]; 16.5 µM in series [3]; 20.4 µM in series [4]; 3.58 µM in [11]; 21.2 µM in series [5]. Besides, the EC50 in series [6] is over 100 µM; in [9], 27.4 µM. In series [8], the CC50 was 187 µM. Also, in series [10], the selectivity ratio worked out at 6.84.

As for `O=C(CC(CC(=O)NC1Cc2ccccc2C1)c1ccccc1)NCCN1CCCCC1` (stereo not given), the IC50 in series [1], in [2], in series [3], in [4] and in [5] was over 100 µM in each case.

Consider `CCNCCNC(=O)CC(CC(=O)N(CC)C1Cc2ccccc2C1)c1ccc(Cl)cc1` (stereo not given), for which the IC50 in series [1] was 66.2 µM; in series [2] it was 19.4 µM; in series [3] it was 14.4 µM; in series [4], 40.5 µM; in series [11] it was 3.78 µM; in series [5] it was 43.8 µM. Further, the EC50 in series [6] and in series [9] was over 100 µM in each case. For the same molecule, in series [8], the CC50 was 144 µM.

As for `CCNCCNC(=O)CC(CC(=O)N(CC)C1Cc2ccccc2C1)c1ccccc1` (stereo not given), the IC50 is over 100 µM in series [1]; over 100 µM in series [2]; over 100 µM in [3]; over 100 µM in series [4]; 3.48 µM in [11]; over 100 µM in [5].

Regarding `CCNCCNC(=O)CC(CC(=O)NC1Cc2ccccc2C1)c1ccc(Cl)cc1` (stereo not given), the half-inhibitory concentration (IC50) in [1] is 83.7 µM; in series [2], 52 µM; in series [3] it was over 100 µM; in series [4] it was 68.4 µM; in series [5], over 100 µM.

As for `Cc1ccc(C(CC(=O)NCCN2CCCCC2)CC(=O)NC2Cc3ccccc3C2)cc1` (stereo not given), the IC50 in series [1], in [2], in series [3], in series [4] and in series [5] was over 100 µM each time.

For the molecule `O=C(CC(CC(=O)NC1Cc2ccccc2C1)c1ccc(Cl)cc1)NCCN1CCCCC1` (stereo not given), the half-inhibitory concentration (IC50) stood at 70.4 µM in series [1]; 28 µM in [2]; 35.5 µM in [3]; 86.2 µM in [4]; 89.1 µM in series [5].

`CN(C(=O)CC(CC(=O)NCCN1CCCC1)c1ccccc1)C1Cc2ccccc2C1` (stereo not given): the IC50 in series [1], in series [2], in series [3], in series [4] and in series [5] was over 100 µM each time.

Regarding `CCNCCNC(=O)CC(CC(=O)NC1Cc2ccccc2C1)c1ccccc1` (stereo not given), the IC50 in series [1], in series [2], in [3], in series [4] and in [5] was over 100 µM each time.

Take `O=C(CC(CC(=O)NC1Cc2ccccc2C1)c1ccc(Cl)cc1)NCCN1CCCC1` (stereo not given): the IC50 in series [1] is 89.4 µM; in series [2], 50.9 µM; in series [3] it was over 100 µM; in series [4], 77.3 µM; in series [5] it was over 100 µM.

As for `CCN(CC)CCNC(=O)CC(CC(=O)NC1Cc2ccccc2C1)c1ccc(Cl)cc1` (stereo not given), the IC50 in series [1] is 76.7 µM; in series [2] it was 48.6 µM; in series [3], 75 µM; in series [4] it was 50.5 µM; in series [11], 3.68 µM; in series [5] it was over 100 µM.

Take `CCN(CC)CCNC(=O)CC(CC(=O)NC1Cc2ccccc2C1)c1ccccc1` (stereo not given): the IC50 in series [1] is over 100 µM; in series [2] it was 82.4 µM; in [3], over 100 µM; in [4], over 100 µM; in series [5], over 100 µM.

For the molecule `CNCCNC(=O)CC(CC(=O)NC1Cc2ccccc2C1)c1ccc(Cl)cc1` (stereo not given), the IC50 in [1], in series [2], in series [3], in [4] and in series [5] was over 100 µM in each case.

Consider `Nc1nccc2c1ncn2[C@@H]1O[C@H](CO)[C@@H](O)[C@H]1O`, for which the IC50 turned out to be 94.4 µM in series [1]; 57.4 µM in [2]; 40.3 µM in series [3]; 5.39 µM in series [11]; 41.1 µM in series [5].
